# Assay results taken from PubChem BioAssay (NCI).
# “And” between values parts separate entries of the source, which are not always exact repeats. Equal entries are not always repeated.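 Values below derive from 48-hour exposures of cells grown in 96-well plates, with endpoints linearly interpolated between the two concentrations bracketing the appropriate inhibition level. Here, GI50 denotes the concentration required for 50% inhibition of growth. Definition used: TGI = concentration required for complete inhibition of growth.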
# What was measured:
# Assay in all cases: NCI-60 cell line screen, 48 h
# SK-MEL-5 melanoma = test system: SK-MEL-5 melanoma
# HOP-92 NSCLC = test system: HOP-92 NSCLC
# NCI-H460 lung = test system: NCI-H460 lung
# SF-268 CNS = test system: SF-268 CNS
# DU-145 prostate = test system: DU-145 prostate
# SF-539 CNS = test system: SF-539 CNS
# RPMI-8226 leukemia = test system: RPMI-8226 leukemia
# K-562 leukemia = test system: K-562 leukemia
# COLO 205 colon = test system: COLO 205 colon
# 786-0 renal = test system: 786-0 renal
# NCI/ADR-RES ovarian = test system: NCI/ADR-RES ovarian
# OVCAR-4 ovarian = test system: OVCAR-4 ovarian
# NCI-H522 lung = test system: NCI-H522 lung
SMILES,TGI (SK-MEL-5 melanoma),TGI (HOP-92 NSCLC),TGI (NCI-H460 lung),TGI (SF-268 CNS) [µM],TGI (DU-145 prostate) [µM],TGI (SF-539 CNS) [µM],TGI (RPMI-8226 leukemia),TGI (K-562 leukemia),TGI (COLO 205 colon),TGI (786-0 renal) [µM],TGI (NCI/ADR-RES ovarian) [µM],TGI (OVCAR-4 ovarian) [µM],TGI (NCI-H522 lung),GI50 (HOP-92 NSCLC),GI50 (DU-145 prostate),GI50 (K-562 leukemia),GI50 (COLO 205 colon),GI50 (NCI-H522 lung),GI50 (OVCAR-4 ovarian),GI50 (SF-268 CNS) [µM]
COc1ccc(Nc2nnc(-c3nsc4ccccc34)s2)cc1,> 100 µM,41.8 µM,> 65.9 µM,> 100,> 100,> 100,> 100 µM,> 100 µM,> 100 µM,9.77,> 100,6.73,–,–,–,–,–,–,–,–
O=c1oc2ccc3ccccc3c2cc1-c1cn2ccccc2n1,> 100 µM,> 100 µM,> 100 µM,> 100,> 100,> 100,> 100 µM,> 100 µM,> 100 µM,> 100,> 100,–,> 100 µM,–,–,–,–,–,–,–
C(=C\c1cccs1)/c1cccc(/C=C/c2cccs2)n1,> 100 µM,> 100 µM,> 100 µM,6.9,> 100,> 100,> 100 µM,> 100 µM,> 100 µM,> 100,> 100,66.6,–,–,–,–,–,–,–,–
COc1ccc2[nH]cc(CCNC(=O)[C@H](Cc3ccccc3)NC(=O)[C@@H](NCC(F)(F)F)C(C)C)c2c1,–,28.4 µM,46.3 µM,–,37.7,34.3,23.8 µM,> 100 µM,32.3 µM,35.1,41,32.3,32.1 µM,–,–,–,–,–,–,–
CNC1=C(C)C(=O)C(=O)C([C@H](C)CCC=C(C)C)=C1O,41.4 µM,> 100 µM,> 100 µM,> 100,> 100,–,> 94.3 µM,> 100 µM,> 73.7 µM,> 95.3,> 38.4,> 77,20.4 µM,–,–,–,–,–,–,–
Clc1ccc(NCc2nnc(CCCCCCCCc3nnc(CNc4ccc(Cl)cc4)o3)o2)cc1,> 100 µM,> 100 µM,> 100 µM,> 100,> 100,–,> 100 µM,> 100 µM,> 100 µM,> 100,> 100,> 100,> 100 µM,–,–,–,–,–,–,–
CN(C)Nc1cc(=O)[nH]c(=O)[nH]1,> 100 µM,> 100 µM,> 100 µM,> 100,> 100,> 100,> 100 µM,> 100 µM,> 100 µM,> 100,> 100,> 100,–,–,–,–,–,–,–,–
C=CCN1C(=O)C=C(c2ccccc2)n2ncc3cccc1c32,> 100 µM,> 100 µM,–,> 100,> 100,> 100,> 100 µM,–,> 100 µM,> 100,> 100,–,> 100 µM,–,–,–,–,–,–,–
N#Cc1c(-c2ccccc2)cc(-c2ccccc2)n(C2OC(CO)C(O)C(O)C2O)c1=S (configuration not stated),29.1 µM and > 100 µM,> 100 µM,82.8 µM and > 100 µM,> 100,> 100,–,56.3 µM and > 100 µM,41.4 µM and > 100 µM,45.9 µM and > 100 µM,> 100,> 100,> 100,35.6 µM and > 100 µM,46.6 µM and > 100 µM,42.2 µM and > 100 µM,13.7 µM and 29.4 µM,17.9 µM and 43 µM,17.1 µM and 38.9 µM,37.1 µM and > 100 µM,–
O=C(NC1=NCC(CN2CCN(c3ccccc3)CC2)O1)Nc1ccccc1 (configuration not stated),> 100 µM,> 100 µM,> 100 µM,> 100,> 100,–,> 100 µM,> 100 µM,> 100 µM,> 100,> 100,> 100,> 100 µM,–,–,–,–,–,–,–
CCc1c2c([nH]c(=S)c1C#N)CCC2,> 100 µM,> 100 µM,> 100 µM,> 100,> 100,–,> 100 µM,> 100 µM,> 100 µM,> 100,> 100,> 100,> 100 µM,–,–,–,–,–,–,–
CC(=O)NC1C(OCc2ccccc2)OC(CO)C(O)C1OC(C)C(=O)NC(C(=O)N[C@@H](CCC(=O)NCCNCCNc1c2ccccc2nc2cccc([N+](=O)[O-])c12)C(N)=O)C(C)C (some centres not stated),–,69.9 µM,> 100 µM,> 100,> 100,45.6,58.7 µM,19.9 µM,56.7 µM,76.9,> 100,> 100,–,–,–,–,–,–,–,–
C1=NCCN2CCN(CCN=Cc3ccc(cc3)OCc3cccc(n3)COc3ccc1cc3)CC2,–,> 50 µM,> 50 µM,> 50,> 50,> 50,> 50 µM,> 50 µM,> 50 µM,> 50,> 50,> 50,> 50 µM,–,–,–,–,–,–,–
O=C1/C(=C/c2ccccc2O)N=C(c2ccccc2)N1C1Nc2cc3c(cc2S1)NC(N1C(=O)/C(=C/c2ccccc2O)N=C1c1ccccc1)S3 (configuration not stated),> 100 µM,15 µM,> 100 µM,59.6,> 100,> 100,> 100 µM,> 100 µM,–,> 100,> 100,> 100,> 100 µM,–,–,–,–,–,–,–
C=C(C)C1=CCC[C@]2(C1)N=C(OC)[C@@H](C(C)C)N=C2OC,> 100 µM,> 100 µM,> 100 µM,> 100,> 100,> 100,47.9 µM,–,> 100 µM,> 100,> 100,> 100,> 100 µM,–,–,–,–,–,–,–
COc1ccc(-c2c(C#N)c(N)n(C3OCC(OC(C)=O)C(OC(C)=O)C3OC(C)=O)c(=S)c2C#N)cc1 (configuration not stated),> 100 µM,88.8 µM and 98.5 µM,> 100 µM,> 100,> 100,> 100,75.1 µM and 97.5 µM,–,> 100 µM,> 100,> 100,> 100,> 100 µM,–,–,–,–,–,–,–
O=C(CC(=O)N(C(=O)/C=C\c1ccccc1)c1ccc(Cl)cc1)N1N=C(c2ccccc2)C(N=Nc2cccc([N+](=O)[O-])c2)C1=O (configuration not stated),–,> 100 µM,29.5 µM,26.2,91.8,25.8,93.4 µM,68.6 µM,14.7 µM,19.6,22,–,–,–,–,–,–,–,–,–
O=C1/C(=C/c2cccc(F)c2)CCCc2ccccc21,–,29.2 µM,31.1 µM,28.1,30.6,31.2,53.7 µM,32.1 µM,36.4 µM,30.9,33.1,31.8,25.5 µM,–,–,–,–,–,–,–
Cc1csc2[n+]1C(=O)/C(=C\c1ccc([N+](=O)[O-])cc1)S2,55 µM,47.7 µM,41.9 µM,86.5,> 100,> 100,> 100 µM,> 100 µM,39.9 µM,71.8,63.6,> 100,–,–,–,–,–,–,–,–
CCOC(=O)c1cnc2oc3ccc(O)cc3c2c1C,> 100 µM,> 100 µM,> 100 µM,> 100,> 100,> 100,> 100 µM,> 100 µM,> 100 µM,> 100,> 100,> 100,–,–,–,–,–,–,–,69.9
O=C1/C(=C\c2ccc(O)cc2)CCC/C1=C/c1ccc(Cl)c(Cl)c1,19.6 µM,28.9 µM,–,11.9,9.8,–,5.76 µM,11.9 µM,3.67 µM,6.05,4.27,5.93,–,–,–,–,–,–,–,–
Cc1ccc(S(=O)(=O)n2cc(-c3cc(C(F)(F)F)ccn3)c3cc(Br)ccc32)cc1,82.9 µM,35.3 µM,> 100 µM,93.9,> 100,39.5,> 100 µM,> 100 µM,> 100 µM,36.3,> 100,29.7,–,–,–,–,–,–,–,–
C=CCNC1=C2C[C@@H](C)C[C@@H](OC)[C@H](OC(=O)CCN)[C@H](C)/C=C(\C)[C@@H](OC(N)=O)[C@H](OC)/C=C\C=C(/C)C(=O)NC(=CC1=O)C2=O,17.4 µM,16.9 µM,15.2 µM,25.5,16,–,32.5 µM,> 100 µM,10.1 µM,17,> 100,21.3,20.2 µM,–,–,–,–,–,–,–
Cn1c(=O)c(Br)c(C=O)n(CCO[N+](=O)[O-])c1=O,23.9 µM,6.85 µM,31.5 µM,31.3,> 100,32.8,7.42 µM,8.82 µM,26.9 µM,17.3,4.31,–,–,–,–,–,–,–,–,–
O=[N+]([O-])/C(C(Cl)=C(Cl)Cl)=C(\N1CCOCC1)n1nnc2ccccc21,35.3 µM,37.6 µM,45.6 µM,40,37.5,32.8,> 100 µM,–,34.7 µM,44.8,65.1,76.1,34.1 µM,–,–,–,–,–,–,–
CCc1n[nH]c(=O)n1/N=C/c1c(O)ccc2ccccc12,> 100 µM,> 100 µM,–,> 100,> 100,> 100,> 100 µM,> 100 µM,> 100 µM,> 100,> 100,> 100,> 100 µM,–,–,–,–,–,–,–
Cn1c2ccccc2n2c(N=O)c(-c3ccccc3)nc12,34.1 µM,> 100 µM,48.3 µM,> 100,> 100,–,> 100 µM,> 100 µM,22.6 µM,> 100,> 100,> 100,> 100 µM,–,–,–,–,–,–,–
